pKi: −log10 of the molar value.
Target: Furin (Homo sapiens, UniProt P09958)
Sequence (P09958 whole entry): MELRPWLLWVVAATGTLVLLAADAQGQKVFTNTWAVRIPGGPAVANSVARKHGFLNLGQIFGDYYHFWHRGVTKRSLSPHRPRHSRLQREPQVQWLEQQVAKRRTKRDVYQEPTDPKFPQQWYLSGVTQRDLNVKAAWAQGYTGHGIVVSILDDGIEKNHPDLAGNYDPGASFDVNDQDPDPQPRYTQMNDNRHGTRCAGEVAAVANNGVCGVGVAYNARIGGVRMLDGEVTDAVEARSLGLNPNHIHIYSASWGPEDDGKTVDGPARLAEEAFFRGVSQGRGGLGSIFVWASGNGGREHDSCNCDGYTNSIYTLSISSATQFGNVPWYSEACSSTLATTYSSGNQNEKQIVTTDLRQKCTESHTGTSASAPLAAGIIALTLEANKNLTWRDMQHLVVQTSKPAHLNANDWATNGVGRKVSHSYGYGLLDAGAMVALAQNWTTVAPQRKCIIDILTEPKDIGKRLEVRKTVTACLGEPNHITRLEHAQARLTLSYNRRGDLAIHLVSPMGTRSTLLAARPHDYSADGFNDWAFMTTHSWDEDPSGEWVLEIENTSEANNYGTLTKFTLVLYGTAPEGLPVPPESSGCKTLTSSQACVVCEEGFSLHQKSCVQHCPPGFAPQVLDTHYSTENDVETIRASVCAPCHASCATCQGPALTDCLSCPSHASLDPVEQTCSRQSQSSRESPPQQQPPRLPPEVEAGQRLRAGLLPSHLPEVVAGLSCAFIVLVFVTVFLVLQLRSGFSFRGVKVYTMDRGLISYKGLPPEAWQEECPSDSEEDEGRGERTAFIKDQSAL

Structure (SMILES)	pKi
C[C@@H](O)[C@H](N)C(=O)N1CCC[C@H]1C(=O)N[C@@H](CCCNC(=N)N)C(=O)N[C@@H](CCC(=O)O)C(=O)N[C@@H](CCCNC(=N)N)C(=O)N[C@@H](CCCNC(=N)N)C(=O)N[C@@H](CCCNC(=N)N)C(=O)N[C@@H](CCCCN)C(=O)N[C@@H](CCCCN)C(=O)N[C@@H](CCCNC(=N)N)C(=O)NCC(=O)O	< 7.00
CSCC[C@H](NC(=O)[C@H](CCCNC(=N)N)NC(=O)[C@H](CCCCN)NC(=O)[C@H](CCCCN)NC(=O)[C@H](CCCNC(=N)N)NC(=O)[C@H](CCCNC(=N)N)NC(=O)[C@H](CCCNC(=N)N)NC(=O)[C@H](C)NC(=O)[C@H](CCCNC(=N)N)NC(=O)[C@@H]1CCCN1C(=O)[C@@H](N)[C@@H](C)O)C(=O)O	< 7.00
CSC[C@H](NC(=O)[C@H](CCCN=C(N)N)NC(=O)[C@H](CCCCN)NC(=O)[C@H](CCCCN)NC(=O)[C@H](CCCN=C(N)N)NC(=O)[C@H](CCCN=C(N)N)NC(=O)[C@H](CCCN=C(N)N)NC(=O)[C@H](C)NC(=O)[C@H](CCCN=C(N)N)NC(=O)[C@@H]1CCCN1C(=O)[C@@H](N)[C@@H](C)O)C(=O)O	7.19
CSCC[C@H](NC(=O)[C@H](CCCN=C(N)N)NC(=O)[C@H](CCC(N)=O)NC(=O)[C@@H]1CCCN1C(=O)[C@@H](N)[C@@H](C)O)C(=O)N[C@@H](CCCN=C(N)N)C(=O)N[C@@H](CCCN=C(N)N)C(=O)N[C@@H](CCCN=C(N)N)C(=O)N[C@@H](CCCCN)C(=O)N[C@@H](CCCCN)C(=O)N[C@@H](CCCNC(=N)N)C(=O)NCC(=O)O	< 7.00
C[C@@H](O)[C@H](N)C(=O)N1CCC[C@H]1C(=O)N[C@@H](CCCNC(=N)N)C(=O)N[C@H](CCC(=O)O)C(=O)N[C@@H](CCCNC(=N)N)C(=O)N[C@@H](CCCNC(=N)N)C(=O)N[C@@H](CCCNC(=N)N)C(=O)N[C@@H](CCCCN)C(=O)N[C@@H](CCCCN)C(=O)N[C@@H](CCCNC(=N)N)C(=O)NCC(=O)O	< 7.00
CCCC[C@H](NC(=O)[C@H](CCCNC(=N)N)NC(=O)[C@H](CCCCN)NC(=O)[C@H](CCCCN)NC(=O)[C@H](CCCNC(=N)N)NC(=O)[C@H](CCCNC(=N)N)NC(=O)[C@H](CCCNC(=N)N)NC(=O)[C@H](C)NC(=O)[C@H](CCCNC(=N)N)NC(=O)[C@@H]1CCCN1C(=O)[C@@H](N)[C@@H](C)O)C(=O)O	7.09
C[C@@H](O)[C@H](N)C(=O)N1CCC[C@H]1C(=O)N[C@@H](CCC(N)=O)C(=O)N[C@@H](CCCNC(=N)N)C(=O)NCCC(=O)N[C@@H](CCCN=C(N)N)C(=O)N[C@@H](CCCN=C(N)N)C(=O)N[C@@H](CCCN=C(N)N)C(=O)N[C@@H](CCCCN)C(=O)N[C@@H](CCCCN)C(=O)N[C@@H](CCCNC(=N)N)C(=O)NCC(=O)O	< 7.00
C[C@@H](O)[C@H](N)C(=O)N1CCC[C@H]1C(=O)N[C@@H](CCC(N)=O)C(=O)N[C@@H](CCCNC(=N)N)C(=O)N[C@@H](CCCNC(N)=O)C(=O)N[C@@H](CCCNC(=N)N)C(=O)N[C@@H](CCCNC(=N)N)C(=O)N[C@@H](CCCNC(=N)N)C(=O)N[C@@H](CCCCN)C(=O)N[C@@H](CCCCN)C(=O)N[C@@H](CCCNC(=N)N)C(=O)NCC(=O)O	< 7.00
C[C@H](NC(=O)[C@H](CCCNC(=N)N)NC(=O)[C@@H]1CCCN1C(=O)[C@@H](N)[C@@H](C)O)C(=O)N[C@@H](CCCNC(=N)N)C(=O)N[C@@H](CCCNC(=N)N)C(=O)N[C@@H](CCCNC(=N)N)C(=O)N[C@@H](CCCCN)C(=O)N[C@@H](CCCCN)C(=O)N[C@@H](CCCNC(=N)N)C(=O)N[C@@H](CS)C(=O)O	< 7.00
C[C@@H](O)[C@H](N)C(=O)N1CCC[C@H]1C(=O)N[C@@H](CCC(N)=O)C(=O)N[C@@H](CCCNC(=N)N)C(=O)NCCCCCC(=O)N[C@@H](CCCNC(=N)N)C(=O)N[C@@H](CCCNC(=N)N)C(=O)N[C@@H](CCCNC(=N)N)C(=O)N[C@@H](CCCCN)C(=O)N[C@@H](CCCCN)C(=O)N[C@@H](CCCNC(=N)N)C(=O)NCC(=O)O	< 7.00
C[C@@H](O)[C@H](N)C(=O)N1CCC[C@H]1C(=O)N[C@@H](CCCN=C(N)N)C(=O)N[C@@H](CCCNC(N)=O)C(=O)N[C@@H](CCCN=C(N)N)C(=O)N[C@@H](CCCN=C(N)N)C(=O)N[C@@H](CCCN=C(N)N)C(=O)N[C@@H](CCCCN)C(=O)N[C@@H](CCCCN)C(=O)N[C@@H](CCCN=C(N)N)C(=O)NCC(=O)O	< 7.00
C[C@H](NC(=O)[C@H](CCCNC(=N)N)NC(=O)[C@H](CCC(N)=O)NC(=O)[C@@H]1CCCN1C(=O)[C@@H](N)[C@@H](C)O)C(=O)N[C@@H](CCCNC(=N)N)C(=O)N[C@@H](CCCNC(=N)N)C(=O)N[C@@H](CCCNC(=N)N)C(=O)N[C@@H](CCCCN)C(=O)N[C@@H](CCCCN)C(=O)N[C@H](CCCNC(=N)N)C(=O)NCC(=O)O	< 7.00
C[C@@H](O)[C@H](N)C(=O)N1CCC[C@H]1C(=O)N[C@@H](CCC(N)=O)C(=O)N[C@@H](CCCNC(=N)N)C(=O)N[C@@H](CS)C(=O)N[C@@H](CCCNC(=N)N)C(=O)N[C@@H](CCCNC(=N)N)C(=O)N[C@@H](CCCNC(=N)N)C(=O)N[C@@H](CCCCN)C(=O)N[C@@H](CCCCN)C(=O)N[C@@H](CCCNC(=N)N)C(=O)NCC(=O)O	< 7.00
C[C@@H](O)[C@H](N)C(=O)N1CCC[C@H]1C(=O)N[C@@H](CCCN=C(N)N)C(=O)NC1(C(=O)N[C@@H](CCCN=C(N)N)C(=O)N[C@@H](CCCN=C(N)N)C(=O)N[C@@H](CCCN=C(N)N)C(=O)N[C@@H](CCCCN)C(=O)N[C@@H](CCCCN)C(=O)N[C@@H](CCCN=C(N)N)C(=O)NCC(=O)O)CCCC1	< 7.00
C[C@@H](O)[C@H](N)C(=O)N1CCC[C@H]1C(=O)N[C@@H](CCCN=C(N)N)C(=O)N[C@@H](CCCCN)C(=O)N[C@@H](CCCN=C(N)N)C(=O)N[C@@H](CCCN=C(N)N)C(=O)N[C@@H](CCCN=C(N)N)C(=O)N[C@@H](CCCCN)C(=O)N[C@@H](CCCCN)C(=O)N[C@@H](CCCN=C(N)N)C(=O)NCC(=O)O	< 7.00
C[C@@H](O)[C@H](N)C(=O)N1CCC[C@H]1C(=O)N[C@@H](CCC(N)=O)C(=O)N[C@@H](CCCNC(=N)N)C(=O)N[C@@H](CCC(=O)O)C(=O)N[C@@H](CCCNC(=N)N)C(=O)N[C@@H](CCCNC(=N)N)C(=O)N[C@@H](CCCNC(=N)N)C(=O)N[C@@H](CCCCN)C(=O)N[C@@H](CCCCN)C(=O)N[C@@H](CCCNC(=N)N)C(=O)NCC(=O)O	< 7.00
C[C@@H](O)[C@H](N)C(=O)N1CCC[C@H]1C(=O)N[C@@H](CCC(N)=O)C(=O)N[C@@H](CCCN=C(N)N)C(=O)N[C@@H](CCCN=C(N)N)C(=O)N[C@@H](CCCN=C(N)N)C(=O)N[C@@H](CCCN=C(N)N)C(=O)N[C@@H](CCCN=C(N)N)C(=O)N[C@@H](CCCCN)C(=O)N[C@@H](CCCCN)C(=O)N[C@@H](CCCNC(=N)N)C(=O)NCC(=O)O	< 7.00
C[C@@H](O)[C@H](N)C(=O)N1CCC[C@H]1C(=O)N[C@@H](CCC(N)=O)C(=O)N[C@@H](CCCN=C(N)N)C(=O)N[C@H](CCCCN)C(=O)N[C@@H](CCCN=C(N)N)C(=O)N[C@@H](CCCN=C(N)N)C(=O)N[C@@H](CCCN=C(N)N)C(=O)N[C@@H](CCCCN)C(=O)N[C@@H](CCCCN)C(=O)N[C@@H](CCCNC(=N)N)C(=O)NCC(=O)O	< 7.00
C[C@@H](O)[C@H](N)C(=O)N1CCC[C@H]1C(=O)N[C@@H](CCCNC(=N)N)C(=O)N[C@H](CCCCN)C(=O)N[C@@H](CCCNC(=N)N)C(=O)N[C@@H](CCCNC(=N)N)C(=O)N[C@@H](CCCNC(=N)N)C(=O)N[C@@H](CCCCN)C(=O)N[C@@H](CCCCN)C(=O)N[C@@H](CCCNC(=N)N)C(=O)NCC(=O)O	< 7.00
C[C@@H](O)[C@H](N)C(=O)N1CCC[C@H]1C(=O)N[C@@H](CCC(N)=O)C(=O)N[C@@H](CCCN=C(N)N)C(=O)N[C@H](CCCN=C(N)N)C(=O)N[C@@H](CCCN=C(N)N)C(=O)N[C@@H](CCCN=C(N)N)C(=O)N[C@@H](CCCN=C(N)N)C(=O)N[C@@H](CCCCN)C(=O)N[C@@H](CCCCN)C(=O)N[C@@H](CCCNC(=N)N)C(=O)NCC(=O)O	< 7.00
C[C@@H](O)[C@H](N)C(=O)N1CCC[C@H]1C(=O)N[C@@H](CCC(N)=O)C(=O)N[C@@H](CCCN=C(N)N)C(=O)N[C@@H](CCCCN)C(=O)N[C@@H](CCCN=C(N)N)C(=O)N[C@@H](CCCN=C(N)N)C(=O)N[C@@H](CCCN=C(N)N)C(=O)N[C@@H](CCCCN)C(=O)N[C@@H](CCCCN)C(=O)N[C@@H](CCCNC(=N)N)C(=O)NCC(=O)O	< 7.00
C[C@@H](O)[C@H](N)C(=O)N1CCC[C@H]1C(=O)N[C@@H](CCC(N)=O)C(=O)N[C@@H](CCCN=C(N)N)C(=O)N[C@H](CCC(=O)O)C(=O)N[C@@H](CCCN=C(N)N)C(=O)N[C@@H](CCCN=C(N)N)C(=O)N[C@@H](CCCN=C(N)N)C(=O)N[C@@H](CCCCN)C(=O)N[C@@H](CCCCN)C(=O)N[C@@H](CCCNC(=N)N)C(=O)NCC(=O)O	< 7.00
CC(C)C[C@H](NC(=O)[C@H](CCCN=C(N)N)NC(=O)[C@H](CCCCN)NC(=O)[C@H](CCCCN)NC(=O)[C@H](CCCN=C(N)N)NC(=O)[C@H](CCCN=C(N)N)NC(=O)[C@H](CCCN=C(N)N)NC(=O)[C@H](C)NC(=O)[C@H](CCCN=C(N)N)NC(=O)[C@@H]1CCCN1C(=O)[C@@H](N)[C@@H](C)O)C(=O)O	< 7.00
C[C@H](NC(=O)[C@H](CCCNC(=N)N)NC(=O)[C@H](CCC(N)=O)NC(=O)[C@@H]1CCCN1C(=O)[C@@H](N)[C@@H](C)O)C(=O)N[C@@H](CCCNC(=N)N)C(=O)N[C@@H](CCCNC(=N)N)C(=O)N[C@@H](CCCNC(=N)N)C(=O)N[C@@H](CCCCN)C(=O)N[C@@H](CCCCN)C(=O)N[C@H](CCCCN)C(=O)NCC(=O)O	< 7.00
C[C@H](NC(=O)[C@H](CCCN=C(N)N)NC(=O)[C@H](CCC(N)=O)NC(=O)[C@@H]1CCCN1C(=O)[C@@H](N)[C@@H](C)O)C(=O)N[C@@H](CCCN=C(N)N)C(=O)N[C@@H](CCCN=C(N)N)C(=O)N[C@@H](CCCN=C(N)N)C(=O)N[C@@H](CCCCN)C(=O)N[C@@H](CCCCN)C(=O)N[C@@H](CCCNC(N)=O)C(=O)NCC(=O)O	< 7.00
C[C@@H](O)[C@H](N)C(=O)N1CCC[C@H]1C(=O)N[C@@H](CCC(N)=O)C(=O)N[C@@H](CCCN=C(N)N)C(=O)NC1(C(=O)N[C@@H](CCCN=C(N)N)C(=O)N[C@@H](CCCN=C(N)N)C(=O)N[C@@H](CCCN=C(N)N)C(=O)N[C@@H](CCCCN)C(=O)N[C@@H](CCCCN)C(=O)N[C@@H](CCCNC(=N)N)C(=O)NCC(=O)O)CCCC1	< 7.00
CC(C)C[C@H](NC(=O)[C@H](CCCNC(=N)N)NC(=O)[C@H](CCC(N)=O)NC(=O)[C@@H]1CCCN1C(=O)[C@@H](N)[C@@H](C)O)C(=O)N[C@@H](CCCNC(=N)N)C(=O)N[C@@H](CCCNC(=N)N)C(=O)N[C@@H](CCCNC(=N)N)C(=O)N[C@@H](CCCCN)C(=O)N[C@@H](CCCCN)C(=O)N[C@@H](CCCNC(=N)N)C(=O)NCC(=O)O	< 7.00
